# System: RF strain of HIV-1
# Test: HIV-1 cell protection assay (XTT dye reduction)
# Format: cell-based
# Conditions: CEM-SS cells infected with HIV-1 RF, six days, XTT formazan; read-out: EC50
# Method: Example 61: HIV-1 Cell Protection Assay
# The antiviral activities of potential modulator compounds (test compounds) were determined in HIV-1 cell protection assays using the RF strain of HIV-1, CEM-SS cells, and the XTT dye reduction method (Weislow, O.S. et al., J. Natl. Cancer Inst. 81: 577-586 (1989)). Subject cells were infected with HIV-1 RF virus at an moi of 0.025 to 0.819 or mock infected with medium only and added at 2 x 10^4 cells per well into 96 well plates containing half-log dilutions of test compounds. Six days later, 50 µl of XTT solution (1 mg/ml XTT tetrazolium and […] phenazine methosulfate) were added to the wells and the plates were reincubated for four hours. Viability, as determined by the amount of XTT formazan produced, was quantified spectrophotometrically by absorbance at 450 nm.
# Data from CPE assays were expressed as the percent of formazan produced in compound-treated cells compared to formazan produced in wells of uninfected, compound-free cells. […] The therapeutic index was calculated by dividing the cytotoxicity (CC50) by the antiviral activity (EC50).
row,SMILES,EC50
1,"O=C1c2ncc3c(ccn3Cc3ccc(F)cc3)c2CCCN1O [Example 3, 3-(4-Fluorobenzyl)-7-hydroxy-7,8,9,1 0-tetrahydropyrrolo[3',2':4,5]pyrido[2,3-c]azepin-6(3H)-one]",29 nM

# Same assay, conditions: Human immunodeficiency virus 1, CEM-SS, 144 h
row,SMILES,EC50
1,"O=C1c2ncc3c(ccn3Cc3ccc(F)cc3)c2CCN1O [Example 2, 3-(4-Fluorobenzyl)-7-hydroxy-3,7,8,9-tetrahydro-6H-pyrrolo[2,3-c]-1,7-naphthyridin-6-one]",0.6 nM
2,"O=C(c1cn(Cc2ccc(F)cc2)c2cnc3c(=O)n(O)ccc3c12)N1CCCC1 [Example 26, 3-(4-fluorobenzyl)-7-hydroxy-1-(pyrrolidin-1-ylcarbonyl)-3,7-dihydro-6H-pyrrolo[2,3-c]-1,7-naphthyridin-6-one]",5 nM
3,"CC(=O)N1CCN(C(=O)c2cn(Cc3ccc(F)cc3)c3cnc4c(=O)n(O)ccc4c23)CC1 [Example 27, 1-[(4-acetylpiperazin-1-yl)carbonyl]-3-(4-fluorobenzyl)-7-hydroxy-3,7-dihydro-6H-pyrrolo[2,3-c]-1,7-naphthyridin-6-one]",19 nM
4,"O=C(NCCc1cnccn1)c1cn(Cc2ccc(F)cc2)c2cnc3c(=O)n(O)ccc3c12 [Example 28, 3-(4-fluorobenzyl)-7-hydroxy-6-oxo-N-(2-pyrazin-2-ylethyl)-6,7-dihydro-3H-pyrrolo[2,3-c]-1,7-naphthyridine-1-carboxamide]",24 nM
5,"O=C(NCc1ccccn1)c1cn(Cc2ccc(F)cc2)c2cnc3c(=O)n(O)ccc3c12 [Example 29, 3-(4-fluorobenzyl)-7-hydroxy-6-oxo-N-(pyridin-2-ylmethyl)-6,7-dihydro-3H-pyrrolo[2,3-c]-1,7-naphthyridine-1-carboxamide]",35 nM
6,"O=C(NCC(F)(F)F)c1cn(Cc2ccc(F)cc2)c2cnc3c(=O)n(O)ccc3c12 [Example 30, 3-(4-fluorobenzyl)-7-hydroxy-6-oxo-N-(2,2,2-trifluoroethyl)-6,7-dihydro-3H-pyrrolo[2,3-c]-1,7-naphthyridine-1-carboxamide]",13 nM

# Same assay, conditions: Human immunodeficiency virus 1, CEM-SS, 144 h, CEM-SS cells infected with HIV-1 RF, six days, XTT formazan; read-out: EC50
row,SMILES,EC50
1,"O=c1c2ncc3c(ccn3Cc3ccc(F)cc3)c2ccn1O [Example 1, 3-(4-Fluorobenzyl)-7-hydroxy-3,7-dihydro-6H-pyrrolo[2,3-c]-1,7-naphthyridin-6-one]",0.4 nM
2,"CN(C)Cc1cn(Cc2ccc(F)cc2)c2cnc3c(=O)n(O)ccc3c12 [Example 4, 1-[(dimethylamino)methyl]-3-(4-fluorobenzyl)-7-hydroxy-3,7-dihydro-6H-pyrrolo[2,3-c]-1,7-naphthyridin-6-one]",7 nM
3,"NC(=O)[C@@H]1CCCN1Cc1cn(Cc2ccc(F)cc2)c2cnc3c(=O)n(O)ccc3c12 [Example 5, 1-{[3-(4-fluorobenzyl)-7-hydroxy-6-oxo-6,7-dihydro-3H-pyrrolo[2,3-c]-1,7-naphthyridin-1-yl]methyl}-L-prolinamide]",38 nM
4,"O=C1CN(Cc2cn(Cc3ccc(F)cc3)c3cnc4c(=O)n(O)ccc4c23)CCN1 [Example 6, 3-(4-fluorobenzyl)-7-hydroxy-1-[(3-oxopiperazin-1-yl)methyl]-3,7-dihydro-6H-pyrrolo[2,3-c]-1,7-naphthyridin-6-one]",12 nM
5,"CN1CCN(Cc2cn(Cc3ccc(F)cc3)c3cnc4c(=O)n(O)ccc4c23)CC1 [Example 7, 3-(4-fluorobenzyl)-7-hydroxy-1-[(4-methylpiperazin-1-yl)methyl]-3,7-dihydro-6H-pyrrolo[2,3-c]-1 ,7-naphthyridin-6-one]",8 nM
6,"CCN1CCN(Cc2cn(Cc3ccc(F)cc3)c3cnc4c(=O)n(O)ccc4c23)CC1 [Example 8, 1-[(4-ethylpiperazin-1-yl)methyl]-3-(4-fluorobenzyl)-7-hydroxy-3,7-dihydro-6H-pyrrolo[2,3-c]-1,7-naphthyridin-6-one]",11 nM
7,"O=c1c2ncc3c(c(CN4CCc5ccccc5C4)cn3Cc3ccc(F)cc3)c2ccn1O [Example 10, 1-(3,4-dihydroisoquinolin-2(1H)-ylmethyl)-3-(4-fluorobenzyl)-7-hydroxy-3,7-dihydro-6H-pyrrolo[2,3-c]-1,7-naphthyridin-6-one]",0.41 nM
8,"CCCCCN(C)Cc1cn(Cc2ccc(F)cc2)c2cnc3c(=O)n(O)ccc3c12 [Example 11, 3-(4-fluorobenzyl)-7-hydroxy-1-{[methyl(pentyl)amino]methyl}-3,7-dihydro-6H-pyrrolo[2,3-c]-1,7-naphthyridin-6-one]",3 nM
9,"NC(=O)[C@H]1CCCN1Cc1cn(Cc2ccc(F)cc2)c2cnc3c(=O)n(O)ccc3c12 [Example 12, 1-{[3-(4-fluorobenzyl)-7-hydroxy-6-oxo-6,7-dihydro-3H-pyrrolo[2,3-c]-1,7-naphthyridin-1-yl]methyl}-D-prolinamide]",4 nM
10,"O=C1NCCC12CCN(Cc1cn(Cc3ccc(F)cc3)c3cnc4c(=O)n(O)ccc4c13)CC2 [Example 13, 3-(4-fluorobenzyl)-7-hydroxy-1-[(1-oxo-2,8-diazaspiro[4.5]dec-8-yl)methyl]-3,7-dihydro-6H-pyrrolo[2,3-c]-1,7-naphthyridin-6-one]",13 nM
11,"CCN(Cc1cn(Cc2ccc(F)cc2)c2cnc3c(=O)n(O)ccc3c12)C1CCCCC1 [Example 14, 1-{[cyclohexyl(ethyl)amino]methyl}-3-(4-fluorobenzyl)-7-hydroxy-3,7-dihydro-6H-pyrrolo[2,3-c]-1,7-naphthyridin-6-one]",8 nM
12,"O=C(CN1CCN(Cc2cn(Cc3ccc(F)cc3)c3cnc4c(=O)n(O)ccc4c23)CC1)N1CCCC1 [Example 15, 3-(4-fluorobenzyl)-7-hydroxy-1-{[4-(2-oxo-2-pyrrolidin-1-ylethyl)piperazin-1-yl]methyl}-3,7-dihydro-6H-pyrrolo[2,3-c]-1,7-naphthyridin-6-one]",39 nM
13,"CN(CCc1ccccn1)Cc1cn(Cc2ccc(F)cc2)c2cnc3c(=O)n(O)ccc3c12 [Example 16, 3-(4-fluorobenzyl)-7-hydroxy-1-{[methyl(2-pyridin-2-ylethyl)amino]methyl}-3,7-dihydro-6H-pyrrolo[2,3-c]-1,7-naphthyridin-6-one]",7 nM
14,"O=C1CCCN1CC1(O)CCN(Cc2cn(Cc3ccc(F)cc3)c3cnc4c(=O)n(O)ccc4c23)CC1 [Example 18, 3-(4-fluorobenzyl)-7-hydroxy-1-({4-hydroxy-4-[(2-oxopyrrolidin-1-yl)methyl]piperidin-1-yl}methyl)-3,7-dihydro-6H-pyrrolo[2,3-c]-1,7-naphthyridin-6-one]",67 nM
15,"O=C1CCN(Cc2cn(Cc3ccc(F)cc3)c3cnc4c(=O)n(O)ccc4c23)CCN1 [Example 19, 3-(4-fluorobenzyl)-7-hydroxy-1-[(5-oxo-1,4-diazepan-1-yl)methyl]-3,7-dihydro-6H-pyrrolo[2,3-c]-1,7-naphthyridin-6-one]",15 nM
16,"NC(=O)[C@@H]1CCCN1S(=O)(=O)c1cn(Cc2ccc(F)cc2)c2cnc3c(=O)n(O)ccc3c12 [Example 20, 1-{[3-(4-fluorobenzyl)-7-hydroxy-6-oxo-6,7-dihydro-3H-pyrrolo[2,3-c]-1,7-naphthyridin-1-yl]sulfonyl}-L-prolinamide]",390 nM
17,"O=c1c2ncc3c(c(S(=O)(=O)NCCc4c[nH]c5ccccc45)cn3Cc3ccc(F)cc3)c2ccn1O [Example 21, 3-(4-fluorobenzyl)-7-hydroxy-N-[2-(1 H-indol-3-yl)ethyl]-6-oxo-6,7-dihydro-3H-pyrrolo[2,3-c]-1,7-naphthyridine-1-sulfonamide]",480 nM
18,"O=C1CN(S(=O)(=O)c2cn(Cc3ccc(F)cc3)c3cnc4c(=O)n(O)ccc4c23)CCN1 [Example 22, 3-(4-fluorobenzyl)-7-hydroxy-1-[(3-oxopiperazin-1-yl)sulfonyl]-3,7-dihydro-6H-pyrrolo[2,3-c]-1,7-naphthyridin-6-one]",45 nM
19,"CN(C)S(=O)(=O)c1cn(Cc2ccc(F)cc2)c2cnc3c(=O)n(O)ccc3c12 [Example 23, 3-(4-fluorobenzyl)-7-hydroxy-N,N-dimethyl-6-oxo-6,7-dihydro-3H-pyrrolo[2,3-c]-1,7-naphthyridine-1-sulfonamide]",4 nM
20,"O=c1c2ncc3c(c(S(=O)(=O)NCC(F)(F)F)cn3Cc3ccc(F)cc3)c2ccn1O [Example 24, 3-(4-fluorobenzyl)-7-hydroxy-6-oxo-N-(2,2,2-trifluoroethyl)-6,7-dihydro-3H-pyrrolo[2,3-c]-1,7-naphthyridine-1-sulfonamide]",22 nM
21,"O=c1c2ncc3c(c(S(=O)(=O)NCc4ccc(F)cc4)cn3Cc3ccc(F)cc3)c2ccn1O [Example 25, N,3-bis(4-fluorobenzyl)-7-hydroxy-6-oxo-6,7-dihydro-3H-pyrrolo[2,3-c]-1,7-naphthyridine-1-sulfonamide]",160 nM
22,"CC(C)(C)OC(=O)N1CCC(COCc2cn(Cc3ccc(F)cc3)c3cnc4c(=O)n(O)ccc4c23)CC1 [Example 32, tert-butyl 4-({[3-(4-fluorobenzyl)-7-hydroxy-6-oxo-6,7-dihydro-3H-pyrrolo[2,3-c]-1,7-naphthyridin-1-yl]methoxy)methyl)pip eridine-1-carboxylate]",6 nM
23,"O=c1c2ncc3c(c(COCCc4ccccn4)cn3Cc3ccc(F)cc3)c2ccn1O [Example 33, 3-(4-fluorobenzyl)-7-hydroxy-1-[(2-pyridin-2-ylethoxy)methyl]-3,7-dihydro-6H-pyrrolo[2,3-c]-1,7-naphthyridin-6-one]",3 nM
